The values that follow come from EP2039702A2, “Prodrugs erbeta-selective substances, method for their production and pharmaceutical compounds containing these compositions” (Bayer Schering Pharma Aktiengesellschaft, priority 2005, dated 2007).

The assay has as its target humaner Carboanhydrase II (Homo sapiens, UniProt P00918). Put plainly: Carbonic anhydrase inhibition, photometric, nitrophenyl acetate conversion on microtitre plates. The following applies: humane Carboanhydrase II; read-out: CAII IC50. The assay is classed as biochemical. An excerpt:
Photometrische Bestimmung der Hemmung von humaner Carboanhydrase I oder II durch Sulfonamide oder Sulfamate auf Mikrotiterplatten mit Hilfe der enzymatischen Umwandlung von Nitrophenylacetat mit einem Farbumschlag von farblos nach gelb. Tabelle 1: IC50 Hemmwerte humaner Carboanhydrase I und II

The term IC50 denotes the concentration at which inhibition is half-maximal.

For `C[C@]12CC[C@@H]3c4ccc(OS(N)(=O)=O)cc4CC[C@H]3[C@@H]1CC[C@@H]2O` [Estradiol-3-sulfamat], the IC50 was determined as 21.6 ± 1.5 nM.
